In patent US20220348590A1, “CYCLOOXYGENASE-2 INHIBITORS AND USES THEREOF” (The Board Institute, Inc., priority 2019, published 2022):
Like-named read-outs stand apart in the source and are kept apart here.

Molecular target: T1, human recombinant COX2 (hCOX2) (UniProt P35354)
T1 sequence (P35354 1-604): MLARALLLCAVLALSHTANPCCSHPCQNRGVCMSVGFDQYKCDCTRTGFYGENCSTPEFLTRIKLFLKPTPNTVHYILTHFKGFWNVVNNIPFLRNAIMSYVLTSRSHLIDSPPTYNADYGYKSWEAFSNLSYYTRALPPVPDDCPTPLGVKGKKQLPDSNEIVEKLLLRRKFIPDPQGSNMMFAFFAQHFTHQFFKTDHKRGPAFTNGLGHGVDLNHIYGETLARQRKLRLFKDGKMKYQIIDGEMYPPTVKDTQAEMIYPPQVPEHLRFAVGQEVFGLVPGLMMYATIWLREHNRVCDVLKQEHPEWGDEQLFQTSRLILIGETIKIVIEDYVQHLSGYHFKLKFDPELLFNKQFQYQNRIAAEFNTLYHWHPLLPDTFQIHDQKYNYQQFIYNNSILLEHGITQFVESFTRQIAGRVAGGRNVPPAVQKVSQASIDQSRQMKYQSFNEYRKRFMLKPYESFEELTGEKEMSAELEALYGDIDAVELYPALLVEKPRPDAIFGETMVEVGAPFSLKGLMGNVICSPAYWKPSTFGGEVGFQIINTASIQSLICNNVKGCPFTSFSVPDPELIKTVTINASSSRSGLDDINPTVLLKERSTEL
Test: LCMS-based COX2 enzymatic inhibition assay (PGE2 quantification)
Format: biochemical
Set-up: COX2 2 minutes pge2/pge2d4 area ratio Avg; other: 2 minutes; readout pge2/pge2d4 area ratio; average; COX2 2 minutes pge2/pge2d4 area ratio Avg; LLE; average LLE; COX2 2 minutes pge2 area (counts) Avg; readout pge2 area (counts); other: 2 min; "ovine COX2 (oCOX2), human recombinant COX2 (hCOX2)"
Conditions: for IC50: average
Experimental: We have adapted a previously reported cyclooxygenase enzymatic assay utilizing LCMS quantification of PGE2 as the product of COX-1 and COX2 catalyzed conversion of arachidonic acid to evaluate the binding properties of newly synthesized ligands [Cao, 2011]. These optimized and miniaturized (384-well plates) LCMS-based COX-1 and COX2 enzymatic assays enabled us to quickly evaluate newly synthesized ligands for COX2 binding affinity and selectivity vs COX-1. Using a shorter ligand-enzyme incubation time in the LCMS assay (2 minutes vs 10 minutes) also permitted us to prioritize ligands with faster binding kinetics. Considering the relatively slow on-rate kinetics of known coxibs, due to their 3-step binding mechanism [Marnett, 2009], we believe that optimizing this critical parameter will be key to the successful development of a COX2 PET tracer. Using these enzymatic assays, we have evaluated>200 newly synthesized ligands against COX2 and >20 ligands against COX-1. Another critical property necessary for a good PET radiotracer is to have low non-specific binding (NSB) to increase the free fraction and maximize the signal to noise ratio. This property can be evaluated using in-vitro protein binding assays, and we have now evaluated>50 newly synthesized ligands in mouse, rat and human plasma protein binding (PPB) assays as well as >15 ligands in a mouse brain protein binding (BPB) assay.
Ovine COX-1 (oCOX-1), ovine COX2 (oCOX2), human recombinant COX2 (hCOX2), arachidonic acid, PGE2, d4-PGD2, and […] (labeled with deuterium atoms at positions 3 and 4) were purchased from Cayman Chemicals (Ann Arbor, Mich.). The cofactors (−)epinephrine and hematin, and the COX inhibitors indomethacin, resveratrol and diclofenac were purchased from Sigma-Aldrich (St. Louis, Mo.). Celecoxib was purchased from 3B PharmaChem International (Wuhan, China). All organic solvents were HPLC grade or better and were purchased from Thermo Fisher (Hanover Park, Ill.). Formic acid was purchased from EMD Chemicals (San Diego, Calif.). Purified water was prepared by using a Millipore Milli-Q purification system (Millipore, Billerica, Mass.). All other chemicals and solvents were ACS reagent grade, unless stated otherwise.
In an Eppendorf tube, 146 μL of 100 mM Tris.HCl (pH 8.0) buffer, 2 μL of 100 μM hematin (co-factor) and 10 μL of 40 mM L-epinephrine (co-factor) were mixed at room temperature. Next, 20 μL of Tris.HCl (pH 8.0) buffer containing 0.2 μg COX2 or 0.1 μg COX-1 (approximately 1 unit of enzyme; 1 unit COX utilizes 1 nmol 02/mg/min at 37° C.) was added, and the solution was incubated at room temperature for 2 min. A 2 μL aliquot of the COX inhibitor in DMSO was added to the enzyme solution and preincubated at 37° C. for 10 min. Negative controls were identical except that 2 μL aliquots of DMSO without inhibitor were used instead.
Each COX reaction was initiated by adding 20 μL of arachidonic acid in Tris.HCl (pH 8.0) buffer to give a final concentration of 5 μM; and the reaction was terminated after 2 min by adding 20 μL of 2.0 M HCl. The surrogate standards d4-PGE2 and d4-PGD2 (10 μL aliquot of 50 ng/mL solution in methanol) were added to correct for errors or degradation during sample handling and for variation in injection volume or instrument response during LC-MS-MS. After 30 min, PGE2, PGD2 and their surrogate standards were extracted from each incubation mixture using 800 μL hexane/ethyl acetate (50:50, v/v). The organic phase was removed, evaporated to dryness, and reconstituted in 100 μL methanol/water (50:50, v/v) for analysis using LC-MS-MS.
The concentration of PGE2 in each sample was measured using LC-MS-MS, and the percent of COX inhibition by each test solution was determined by comparing the amount of PGE2 produced in the experiment with that produced in the negative control incubation. The formation of PGD2 was measured for quality control purposes, since the levels of PGD2 should be proportional to those of PGE2. […]

[1] = read-out: COX2 2 minutes pge2/pge2d4 area ratio Avg. IC50 (microM), 2 minutes, readout pge2/pge2d4 area ratio
[2] = 2 minutes, readout pge2/pge2d4 area ratio, average LLE
[3] = 2 minutes, readout pge2/pge2d4 area ratio, read-out: COX2 2 minutes pge2/pge2d4 area ratio Avg. IC50
[4] = 2 minutes, readout pge2 area (counts), average LLE
[5] = 2 minutes, readout pge2 area (counts), read-out: COX2 2 minutes pge2 area (counts) Avg. IC50
[6] = 10 minutes, readout pge2 area (counts), average LLE
[7] = 10 minutes, readout pge2 area (counts), read-out: COX2 10 minutes pge2 area (counts) Avg. IC50

| SMILES | IC50 [1] [µM] | COX2 2 minutes pge2/pge2d4 area ratio Avg. LLE [2] | IC50 [3] [µM] | COX2 2 minutes pge2 area (counts) Avg. LLE [4] | IC50 [5] [µM] | COX2 10 minutes pge2 area (counts) Avg. LLE [6] | IC50 [7] [µM] | COX2 30 minutes pge2 area (counts) Avg. LLE (30 minutes, readout pge2 area (counts), average LLE) | IC50 (30 minutes, readout pge2 area (counts), read-out: COX2 30 minutes pge2 area (counts) Avg. IC50) [µM] |
| --- | --- | --- | --- | --- | --- | --- | --- | --- | --- |
| CS(=O)(=O)c1ccc(-c2ccc3c(ncn3Cc3cccs3)n2)cc1 [Compound 308] | 5.2 | – | – | – | – | – | – | – | – |
| CS(=O)(=O)c1ccc(-c2cccc(/C=C/c3ccoc3)n2)cc1 [Compound 247] | – | 1.819 | 3.36 | 1.724 | – | – | – | – | – |
| CS(=O)(=O)c1ccc(-c2cncc(NCc3ccco3)c2)cc1 [Compound 161] | – | – | 0.388 | – | 0.337 | – | – | – | – |
| CS(=O)(=O)c1ccc(-c2cncc(SCc3cocn3)n2)cc1 [Compound 258] | – | 3.44 | 4.1 | 3.462 | 3.9 | – | – | – | – |
| CS(=O)(=O)c1ccc(-c2nc(OCc3cccs3)cc3ncccc23)cc1 [Compound 140] | – | 2.8258 | 0.212 | 2.75 | 0.311 | – | – | – | – |
| CS(=O)(=O)c1ccc(-c2cncc(OCc3ccco3)n2)cc1 [Compound 143] | – | 4.842 | 0.226 | 4.928 | 0.216 | – | – | – | – |
| Cc1ncc(-c2ccc(S(C)(=O)=O)cc2)nc1NCc1cccs1 [Compound 145] | – | 4.321 | 0.234 | 4.37 | 0.217 | 5.186 | 0.0388 | – | – |
| CS(=O)(=O)c1ccc(-c2cncc(SCc3cnco3)n2)cc1 [Compound 226] | – | 3.47 | 2.04 | 3.565 | 1.79 | – | – | – | – |
| COc1cc(S(C)(=O)=O)ccc1-c1cncc(NCc2ccoc2)n1 [Compound 272] | 5.2 | 3.674 | – | 3.674 | – | – | – | – | – |
| COc1cc(S(C)(=O)=O)ccc1-c1cccc(NCc2cccs2)n1 [Compound 259] | – | 1.917 | 4.15 | 2.088 | 3.25 | – | – | – | – |
| CS(=O)(=O)c1ccc(-c2cnc3ccn(Cc4nccs4)c3n2)cc1 [Compound 176] | – | 3.19 | 0.532 | 3.2105 | 0.52 | – | – | – | – |
| CS(=O)(=O)c1ccc(-c2cc(OCc3ccco3)cnn2)cc1 [Compound 323] | 5.2 | – | – | – | – | – | – | – | – |
| Cc1coc(C(=O)Nc2cccc(-c3ccc(S(C)(=O)=O)cc3)n2)c1 [Compound 276] | 5.2 | 2.554 | – | 2.659 | 4.08 | – | – | – | – |
| CS(=O)(=O)c1ccc(-c2cc(C(F)(F)F)nc(Oc3ccc(F)cc3)n2)cc1 [Compound 130] | – | 2.661 | 0.153 | 2.626 | 0.21 | 4.116 | 0.00942 | 5.42 | 0.000242 |
| CC(C)COc1cncc(-c2ccc(S(C)(=O)=O)cc2)n1 [Compound 293] | 5.2 | 3.394 | – | 3.394 | – | 3.394 | – | – | – |
| COc1ncc(-c2ccc(S(C)(=O)=O)cc2)nc1NCc1ccccn1 [Compound 260] | – | 4.221 | 4.26 | 4.307 | 2.35 | – | – | – | – |
| CS(=O)(=O)c1ccc(-c2cncc(OCCc3cccs3)n2)cc1 [Compound 312] | 5.2 | – | – | 2.744 | – | – | – | – | – |
| CS(=O)(=O)c1ccc(-n2ccc3ccc(Cc4cccs4)nc32)cc1 [Compound 56] | – | – | 0.0305 | – | 0.0329 | – | – | – | – |
| CS(=O)(=O)c1ccc(-c2cccc(Oc3ccccc3)n2)cc1 [Compound 70] | – | – | 0.0406 | – | 0.0465 | – | – | – | – |
| CS(=O)(=O)c1ccc(-c2cncc(OCc3ccns3)n2)cc1 [Compound 153] | – | 5.153 | 0.304 | 5.323 | 0.195 | – | – | – | – |
| CS(=O)(=O)c1ccc(-c2cncc(NCc3ccc(F)cn3)n2)cc1 [Compound 221] | – | 4.887 | 1.69 | 4.735 | 2.69 | 4.836 | 1.96 | – | – |
| CS(=O)(=O)c1ccc(-c2cnnc(NCc3cccs3)c2)cc1 [Compound 233] | – | 2.958 | 2.45 | 2.953 | 3.06 | – | – | – | – |
| C[S+]([O-])c1ccc(-c2cccc(OCc3cccs3)n2)cc1 (stereo not shown) [Compound 157] | – | 3.382 | 0.35 | 3.281 | 0.428 | – | – | – | – |
| CS(=O)(=O)c1ccc(-c2cncc(NCc3ccoc3)c2)cc1 [Compound 174] | – | – | 0.484 | – | 0.481 | – | – | – | – |
| CS(=O)(=O)c1ccc(-c2cnc3cn(Cc4cccs4)nc3c2)cc1 [Compound 317] | 5.2 | – | – | – | – | – | – | – | – |
| COc1ncc(NCc2cnco2)nc1-c1ccc(S(C)(=O)=O)cc1 [Compound 227] | – | 4.384 | 2.06 | 4.493 | 1.6 | – | – | – | – |
